The values that follow come from patent publication US12605376B2, “Methods of treating relapsing multiple sclerosis using an inhibitor of Bruton's tyrosine kinase” (Genentech, Inc., priority 2020, dated 2026).

Where two headings read alike, the source gives them in different places. Marks after values point to notes of the source that are not given here.

Series [1] relates to panel of over 200 human kinases. Description: Kinase selectivity screen in a panel of over 200 human kinases. It is filed as biochemical. The following applies: for # off-target kinases >50% INH/# total kinases tested @ 1 μM: unpublished.
For series [2], the system named is cells of myeloid progenitor lineage (basophils). Nature of the series: Inhibition of myeloid lineage progenitor cell activation (FcR signaling, basophils). In kind it is cell-based. To be noted: (±SEM).
Series [3] relates to B cells. Nature of the series: Inhibition of B cell activation (B-cell receptor signalling). It is filed as cell-based. The following applies: (±SEM).
Series [4] has as its system panel of over 200 human kinases. To be noted: Crawford, et al., cited from earlier work.
For series [5], the system named is B cells (CD69). To be noted: B cell activation, human whole blood, literature values, cited from earlier work.
The subject of series [6] is basophils (CD63). The following applies: basophil activation, human whole blood, literature values, cited from earlier work.
Series [7] can be described thus: Safety analysis of previous fenebrutinib clinical trials in RA, SLE and CSU.
The conditions of series [8]: without specific elimination procedures; cited from earlier work.
Setting [9] is: patients with autoimmune conditions.

One may read the EC50 as the concentration that produces a half-maximal response. A lower EC50 goes with a more potent agent. By EC90 is commonly meant the concentration at which the effect reaches the 90% level. As a reminder, the IC50 is the concentration that inhibits the measured activity by half. Take `C=CC(=O)N1CCC(CNc2ncnc(N)c2-c2ccc(Oc3ccccc3)cc2)CC1` [Evobrutinib]: in series [1] (10 μM), the “off-target kinases inhibited by >50% / kinases tested at 10 μM” value was 18/218. Besides, the values for the EC50 in series [2] and in series [3] were 171 nM and 161 nM, respectively. In addition, the values for the EC90 in series [2] and in series [3] were 3100 nM and 524 nM, respectively. Besides, the “# off-target kinases >50% INH/# total kinases tested @ 1 μM” value in series [4] (J Med Chem 2018, listed as EVO) is 3/221; in series [4] (J Med Chem 2018) it was 3/221 ^a. Besides, the IC50 in series [5] is 84 nM; in series [6], 1660 nM.
Consider `C[C@H]1CN(C2COC2)CCN1c1ccc(Nc2cc(-c3ccnc(N4CCn5c(cc6c5CC(C)(C)C6)C4=O)c3CO)cn(C)c2=O)nc1` [Fenebrutinib, (S)-2-(3′-(hydroxymethyl)-1-methyl-5-((5-(2-methyl-4-(oxetan-3-yl)piperazin-1-yl)pyridin-2-yl)amino)-6-oxo-1,6-dihydro-[3,4′-bipyridin]-2′-yl)-7,7-dimethyl-2,3,4,6,7,8-hexahydro-1H-cyclopenta[4,5]pyrrolo[1,2-a]pyrazin-1-one], for which the results for the EC50 in series [2] and in series [3] were 15 nM and 8 nM, respectively. For the same compound, the EC90 in series [2] is 62 nM; in series [3], 65 nM. The “# off-target kinases >50% INH/# total kinases tested @ 1 μM” value in series [4] (J Med Chem 2018, listed as FEN) was 3/286; in series [4] (J Med Chem 2018) it was 2/286 ^a. The IC50 was 8.4 nM in series [5], 8 nM in series [5] (listed as FEN), 30.7 nM in series [6] and 31 nM in series [6] (listed as FEN). Also, the “Headache, investigator-reported events” value in series [7] (200 mg twice daily, n = 299) is 16 (5.4%) patients (%). The “Nasopharyngitis, investigator-reported events” value in series [7] (200 mg twice daily, n = 299) is reported as 18 (6.0%) patients (%). Also, in series [7] (200 mg twice daily, n = 299), the “Nausea, investigator-reported events” value is 17 (5.7%) patients (%). Further, the “Number of patients with AE leading to treatment withdrawal” value in series [7] (200 mg twice daily, n = 299) is recorded as 32 (10.7%) patients (%). Further, in series [7] (200 mg twice daily, n = 299), the “Number of patients with Serious AE” value is given as 18 (6.0%) patients (%). Also, the “Number of patients with Serious AE related to blinded fenebrutinib” value in series [7] (200 mg twice daily, n = 299) is listed as 6 (2.0%) patients (%). For the same compound, the “Number of patients with Study withdrawal due to AE” value in series [7] (200 mg twice daily, n = 299) was 17 (5.7%) patients (%). For the same compound, the “Total adverse events (AEs)” value in series [7] (200 mg twice daily, n = 299, RA/SLE/CSU trials) is on record as 507. Also, the “Number of patients with Fatal AE” value in series [7] (200 mg twice daily, n = 299, death deemed unrelated to fenebrutinib) was 1 (0.3%) patients (%). Also, the “Percent of patients with infection adverse events” value was 32.7% (n = 52) in series [7] (CSU, 200 mg, n = 52, median follow-up 56 days); 10.9% (n = 110) in series [7] (RA cohort 1, 200 mg, n = 110, median follow-up 84 days); 6.1% (n = 49) in series [7] (RA cohort 2, 200 mg, n = 49, median follow-up 84 days); 46.6% (n = 88) in series [7] (SLE, 200 mg, n = 88, median follow-up 336 days). In addition, the “infection rates in fenebrutinib arms compared to placebo” value in series [7] (background immunosuppressant therapy in RA and SLE) is “no imbalance of infection rates”. Also, in series [7] (combined fenebrutinib arms), the “patients with serious infections” value amounted to 2.0%. Besides, the “bleeding or bruising, patients” value in series [7] (fenebrutinib arms) came out at 7.7%. Besides, in series [7] (setting [9]), the “Hy's law cases” value was “no Hy's law cases”. Also, the “risk causally associated with fenebrutinib (liver aminotransferase elevations)” value in series [7] (setting [9]) was “Asymptomatic and reversible liver aminotransferase elevations were the only risk causally associated with fenebrutinib”. In addition, in series [7] (randomized clinical trial patients), the “atrial fibrillations, flutters, or other supraventricular tachyarrhythmias” value is reported as “No fenebrutinib randomized clinical trial patients had atrial fibrillations, flutters, or other supraventricular tachyarrhythmias”.
Regarding `C=CC(=O)N1CCC[C@@H](n2c(=O)n(-c3ccc(Oc4ccccc4)cc3)c3c(N)nccc32)C1` [Tolebrutinib], the “# off-target kinases >50% INH/# total kinases tested @ 1 μM” value in series [1] is 19/218 ^d; in series [1] (listed as TOL), 19/218. In addition, the EC50 in series [2] is 80 nM; in series [3], 26 nM. In addition, the EC90 was 281 nM in series [2] and 84 nM in series [3]. The IC50 in series [5] is 10 nM; in series [6], 166 nM.
Turning to `C/C(O)=C(\C#N)C(=O)Nc1ccc(C(F)(F)F)cc1` [teriflunomide], the “time to lower plasma teriflunomide concentrations to 0.02 mg/L” value in series [8] is “up to 2 years”.
